From patent publication US20260193227A1, “THERAPEUTIC COMPOUNDS AND METHODS” (UNIVERSITY OF IOWA RESEARCH FOUNDATION, priority 2022, published 2026)
Entries after “also recorded” stand apart in the source; their conditions may differ.

Assays:
EUFA423F cells = experiment: CellTiter-Glo cell viability, BRCA2-mutated cells; format: cell-based, human; details: for toxicity towards EUFA423 cells: BRCA2-mutated cells, yes/no; for toxicity / selective toxicity towards BRCA2-mutated cells in cell viability assays: EUFA423F versus EUFA423F HA
Source text: (§1) Cell lines: EUFA423F cells that are derived from a Fanconi Anemia patient with complementation group D1 and have biallelic mutations (7691 insAT and 9900 insA) in BRCA2 that result in two different truncated forms of BRCA2 (Howlett N G, et al., Science (New York, NY). 2002; 297(5581):606-9) and its counterpart complemented with expression vector for full-length BRCA2 (EUFA HA) were a generous gift from Dr. Simon Powell, Molecular Biology Program, Radiation Oncology, Sloan-Kettering Cancer Center, New York, NY).
(§2) Cell proliferation assay: Selective toxicity of the compounds towards human BRCA2 deficient cells was tested in EUFA423F and its complement EUFA423F HA using CellTiter-Glo® Luminescent Cell Viability Assay (Promega, Madison, WI). The cell lines were maintained in DMEM (Gibco/ThermoFisher Scientific, Waltham, MA) supplemented with 10% FBS and 10 mM HEPES (Gibco/ThermoFisher Scientific, Waltham, MA). EUFA423F HA cells were routinely supplemented with G418 in order to maintain the BRCA2 expression plasmid. Both cell lines were seeded in sterile tissue culture treated, white opaque 384-well plates (Perkin Elmer Inc., Waltham, MA) 3000 cells/well for EUFA423F HA and 2500 cells/well for EUFA423F) and allowed to adhere for 24 hours. Compounds dissolved in DMSO were added in the concentration range of 0-100 μM. Controls were treated with equivalent DMSO volumes. The cells were treated with compounds for 72 hours (to ensure that all cells experienced at least two S-phases). Post treatment, the cells were washed, treated with the CellTiter-Glo® reagent was added and the plate was analyzed as using a Gen5 (ver2.1) luminosity plate reader. The luminescence that reports on ATP generation by the surviving cells was normalized for the DMSO treated control as 100%. The normalized luminescence (average±standard deviation for at least three independent measurements obtained with different cell passages) was plotted in GraphPad Prism as a function of compound concentration. Clonogenic Survival: EUFA423F and EUFA423F HA cells were seeded in a 96 well plate. Compounds dissolved in DMSO were added to final concentrations of 0, 50, and 100 μM for the compound of Example 8 and the compound of Example 1, and 0, 5, and 10 μM for the compounds of Examples 2-7. The cells were treated with compounds for 72 hours. Post treatment, cell cultures were harvested by collecting all non-adherent cells in the well, trypsinization of all adherent cells, combining, pelleting and then resuspending in fresh media. Cultures treated with DMSO only were subsequently counted using a hemocytometer and plated at a density of 2000, 200 and 20 cells per well in 6-well culture plates, equal volumes of cultures were plated each inhibitor concentration. Each treatment and cell density conditions for both cell lines were plated in triplicate. After expanding the colonies for a period of 8 days, cultures were fixed with a solution of 70% ethanol and crystal violet for clonogenic survival analysis. Pictures of individual wells were taken using GelCount (Version 1.3.0.4) by Oxford Optronix (Abingdon UK). A colony had to contain at least 50 cells to be counted. The number of surviving colonies following treatment are presented as a percentage of number of colonies in the experiment where the cells were treated with DMSO only.

EUFA423F HA cells [1] = experiment: CellTiter-Glo cell viability, BRCA2-complemented cells; format: cell-based, human; details: yes/no
Source text: as §1, §2

[2] = tested on: EUFA423F and EUFA423F HA cells; experiment: Clonogenic survival assay; format: cell-based, human; details: cells pre-treated 72 hours, colonies after 8 days
Source text: as §1
Cell proliferation assay: Selective toxicity of the compounds towards human BRCA2 deficient cells was tested in EUFA423F and its complement EUFA423F HA using CellTiter-Glo® Luminescent Cell Viability Assay (Promega, Madison, WI). […] Post treatment, the cells were washed, treated with the CellTiter-Glo® reagent was added and the plate was analyzed as using a Gen5 (ver2.1) luminosity plate reader. The luminescence that reports on ATP generation by the surviving cells was normalized for the DMSO treated control as 100%. The normalized luminescence (average±standard deviation for at least three independent measurements obtained with different cell passages) was plotted in GraphPad Prism as a function of compound concentration. […] A colony had to contain at least 50 cells to be counted. […]

EUFA423F HA cells [3] = experiment: CellTiter-Glo cell viability, BRCA2-complemented cells; format: cell-based, human; details: high concentrations (Z56: 250 μM)
[4] = Solubility in cell culture medium; format: physicochemical; details: plasma or biological fluid

Structure (SMILES): COc1ccccc1NS(=O)(=O)c1cc(C(=O)O)ccc1C [Example 8]
- toxicity towards EUFA423 cells (EUFA423F cells): yes
- toxicity / selective toxicity towards BRCA2-mutated cells in cell viability assays (EUFA423F cells; CellTiter-Glo, 72 hours, listed as Z56): toxicity only towards BRCA2 mutant cells; also recorded: selectively toxic to BRCA2-mutated cells
- IC50 (EUFA423F cells; Homo sapiens, CellTiter-Glo, 72 hours, read-out: IC50 value for the EUFA423F viability experiments): 32 ± 12.1 µM
- toxicity towards EUFA423 HA (BRCA2-complemented cells) (EUFA423F HA cells [1]): no
- clonogenic survival: confirmation of effect on cell viability [2]: confirmed
- effect on viability/growth of BRCA2-complemented HA cells (EUFA423F HA cells [3]): unaffected

Structure (SMILES): O=C(Cn1cccc([N+](=O)[O-])c1=O)c1c[nH]c2ccccc12 [Example 1]
- toxicity towards EUFA423 cells (EUFA423F cells): yes
- toxicity / selective toxicity towards BRCA2-mutated cells in cell viability assays (EUFA423F cells; CellTiter-Glo, 72 hours, listed as Z99): selectively toxic; also recorded: shows toxicity towards BRCA2-mutated cells
- toxicity towards EUFA423 HA (BRCA2-complemented cells) (EUFA423F HA cells [1]): yes
- solubility [4]: > 100 µM
- clonogenic survival: confirmation of effect on cell viability [2]: confirmed
- effect on viability/growth of BRCA2-complemented HA cells (EUFA423F HA cells [3]; listed as Z99): affected the viability; also recorded: some toxicity towards BRCA2-complemented cells
